The source of these data is paper PMC11648915, “Identification and development of TRPM4 antagonists to counteract neuronal excitotoxicity” (iScience, 2024).

The structures appear in SMILES notation. pIC50: −log10 of the molar value. Read-outs that look alike come from different tables or passages of the source.

In one data set the target is T1, mouse TRPM4 (Mus musculus, UniProt Q7TN37).
T1 construct: Human TRPM4 (UniProtKB: Q8TD43-1) and mouse Trpm4 (UniProtKB: Q7TN37-1) were amplified via PCR; eGFP (C); expressed in transfected cells
As to the kind of experiment: Inside-out patch clamp, mouse TRPM4. It is filed as cell-based. As to conditions: inside-out patch clamp configuration. A general note: In patch-clamp work, channel activity is measured electrically.

Data set [1] in a line: In vivo pharmacokinetics after single i.p. or i.v. dose. The note with it: female, C57BL/6J, mouse. As to the method:
Next, to assess in vivo availability of the Series 1–3 compounds, we evaluated drug metabolism and pharmacokinetics (DMPK). We measured compound concentrations in plasma, heart, and brain at several time points after intraperitoneal (i.p.) or intravenous (i.v.) single-dose injections.
Half-life and bioavailability were calculated by noncompartmental analysis using the R package PK[84] (v1.3-6).

Data set [2] deals with hsTRPM4 L907A, S924A and L907A/S924A mutants. As to the kind of experiment: Whole-cell patch clamp of wild-type and binding-site mutant hsTRPM4. As to conditions: whole-cell voltage clamp, HEK293T.
Source text: Initially, we assessed the basic properties of the hsTRPM4 mutants using whole-cell patch clamp electrophysiology.
A further data set addresses human TRPM4 (Homo sapiens, UniProt Q8TD43). As to the kind of experiment: Inside-out patch clamp, human TRPM4. On the set-up: Human TRPM4 (UniProtKB: Q8TD43-1) and mouse Trpm4 (UniProtKB: Q7TN37-1) were amplified via PCR; expressed in transfected cells. The note with it: inside-out patch clamp configuration. The data set is classed as cell-based. As to the method:
Patch clamp recordings were conducted using an EPC10 patch clamp amplifier and Patchmaster software (HEKA, Germany). An Ag/AgCl wire served as the reference electrode in all experiments. […] Liquid junction potential was compensated before achieving gigaseal formation. All experiments were conducted at room temperature. Whole-cell currents were recorded in transiently transfected HEK293 cells expressing either wildtype human TRPM4, TRPM4-L907A, or TRPM4-S924A. Recordings involved a 400 ms increasing voltage ramp from –100 mV to +100 mV, initiated from a holding potential of 0 mV. The interval between each sweep was 2 seconds, with data sampled at 5 kHz. […] To identify TRPM4 currents, extracellular Na^+ was replaced with equimolar NMDG^+. […] Similar to whole-cell recordings, a 400 ms increasing voltage ramp from –100 mV to +100 mV was applied from a holding potential of 0 mV. The interval between sweeps was 2 seconds, and data were sampled at 5 kHz. […] TRPM4 currents were activated by 500 μM CaCl2 and deactivated by 10 mM EGTA, both added to the intracellular solution. Ca^2+ activation curves were fitted using a likelihood maximization algorithm to estimate the parameters for the sigmoidal fitting curves y-maximum, slope and midpoint as part of the R package sicegar (V0.2.4).

The target in another data set is T2, CYP 2C19 (Homo sapiens, UniProt P33261).
T2 construct: purchased BD Gentest
As to the kind of experiment: CYP inhibition assay 2C19. It is filed as in vitro ADME. Here is the method: (§1) The half-maximal inhibitory concentration (IC50) for cytochrome P450 (CYP) enzymes was determined using an in vitro enzyme inhibition assay. Recombinant CYP enzymes or human liver microsomes from BD Gentest, in 0.1 M phosphate buffer pH 7.4, containing native CYP enzymes were incubated with the test compound at various concentrations (1, 3, 10 and 30 μM) and containing 0.5% DMSO and 0.1% BSA final concentrations. 1 mM of NADPH cofactor was added and the reaction was started by a rapid increase of temperature until 37°C.

For a further data set, the target named is T3, CYP 2C9 (Homo sapiens, UniProt P11712).
T3 construct: purchased BD Gentest
As to the kind of experiment: CYP inhibition assay 2C9. It is filed as in vitro ADME. Here is the method:
as §1

Data set [3] in a line: Caco-2 permeability assay. The data set is classed as in vitro ADME. As to conditions: human, direction not given. Here is the method: Caco-2 permeability was evaluated using a cell-based assay with Caco-2 cells cultured on permeable membrane inserts. The test compound was added at 10 μM to the apical (donor) compartment, and samples were collected from the basolateral (receiver) compartment at 120 min. The test compound was also added at 10 μM to the basolateral (donor) compartment, and samples were collected from the apical (receiver) compartment at 120 min. The amount of the compound in both compartments was measured using mass spectrometry (LC-MS/MS). The permeability coefficient (Papp, nm/s) apical to basolateral and basolateral to apical, and an efflux ratio were calculated.
A general note: Passage across Caco-2 layers is used to estimate intestinal permeability.

T1 sequence (Q7TN37 whole entry): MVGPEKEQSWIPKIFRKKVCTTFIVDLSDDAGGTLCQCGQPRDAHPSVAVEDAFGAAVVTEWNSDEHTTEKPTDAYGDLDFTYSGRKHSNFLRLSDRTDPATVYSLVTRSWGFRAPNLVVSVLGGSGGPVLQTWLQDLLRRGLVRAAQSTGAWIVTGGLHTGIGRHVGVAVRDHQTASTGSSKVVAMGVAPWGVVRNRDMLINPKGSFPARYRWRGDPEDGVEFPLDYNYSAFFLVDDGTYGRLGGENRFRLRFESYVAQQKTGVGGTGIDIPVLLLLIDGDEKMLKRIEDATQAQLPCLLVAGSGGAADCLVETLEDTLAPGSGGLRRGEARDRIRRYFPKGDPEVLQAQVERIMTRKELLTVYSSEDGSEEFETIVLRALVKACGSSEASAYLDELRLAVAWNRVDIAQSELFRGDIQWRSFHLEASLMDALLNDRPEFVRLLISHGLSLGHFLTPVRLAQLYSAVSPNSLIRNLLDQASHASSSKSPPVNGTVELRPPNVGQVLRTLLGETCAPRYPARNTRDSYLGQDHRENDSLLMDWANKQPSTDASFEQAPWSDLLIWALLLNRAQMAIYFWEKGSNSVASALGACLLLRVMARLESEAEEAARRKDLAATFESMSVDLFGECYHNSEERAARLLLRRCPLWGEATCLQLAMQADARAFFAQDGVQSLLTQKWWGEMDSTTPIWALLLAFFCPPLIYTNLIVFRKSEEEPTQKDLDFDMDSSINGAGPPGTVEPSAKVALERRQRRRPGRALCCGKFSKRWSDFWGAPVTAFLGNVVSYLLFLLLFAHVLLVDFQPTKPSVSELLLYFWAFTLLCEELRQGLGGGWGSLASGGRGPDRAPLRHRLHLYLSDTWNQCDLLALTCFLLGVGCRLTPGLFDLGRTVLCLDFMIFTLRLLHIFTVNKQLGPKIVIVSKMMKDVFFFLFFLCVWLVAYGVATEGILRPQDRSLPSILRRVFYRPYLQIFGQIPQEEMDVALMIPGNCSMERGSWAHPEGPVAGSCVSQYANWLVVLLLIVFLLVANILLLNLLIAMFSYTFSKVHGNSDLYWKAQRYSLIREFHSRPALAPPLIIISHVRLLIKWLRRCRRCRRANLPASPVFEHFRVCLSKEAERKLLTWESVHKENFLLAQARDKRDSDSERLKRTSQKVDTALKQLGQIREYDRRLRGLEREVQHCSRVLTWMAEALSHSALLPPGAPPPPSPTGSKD
T3 sequence (P11712 whole entry): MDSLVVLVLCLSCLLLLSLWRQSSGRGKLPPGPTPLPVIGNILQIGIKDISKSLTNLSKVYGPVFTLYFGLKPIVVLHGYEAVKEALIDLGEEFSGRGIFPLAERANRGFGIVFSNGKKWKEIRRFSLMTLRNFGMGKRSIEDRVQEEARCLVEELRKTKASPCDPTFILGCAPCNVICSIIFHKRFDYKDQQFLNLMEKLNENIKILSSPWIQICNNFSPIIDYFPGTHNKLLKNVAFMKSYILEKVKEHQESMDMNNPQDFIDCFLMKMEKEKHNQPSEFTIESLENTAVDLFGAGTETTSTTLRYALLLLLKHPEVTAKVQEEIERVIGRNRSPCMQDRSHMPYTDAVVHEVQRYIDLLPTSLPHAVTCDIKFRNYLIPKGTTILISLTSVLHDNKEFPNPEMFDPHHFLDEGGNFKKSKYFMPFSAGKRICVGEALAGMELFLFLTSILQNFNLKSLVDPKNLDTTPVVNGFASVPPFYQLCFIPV
T2 sequence (P33261 whole entry): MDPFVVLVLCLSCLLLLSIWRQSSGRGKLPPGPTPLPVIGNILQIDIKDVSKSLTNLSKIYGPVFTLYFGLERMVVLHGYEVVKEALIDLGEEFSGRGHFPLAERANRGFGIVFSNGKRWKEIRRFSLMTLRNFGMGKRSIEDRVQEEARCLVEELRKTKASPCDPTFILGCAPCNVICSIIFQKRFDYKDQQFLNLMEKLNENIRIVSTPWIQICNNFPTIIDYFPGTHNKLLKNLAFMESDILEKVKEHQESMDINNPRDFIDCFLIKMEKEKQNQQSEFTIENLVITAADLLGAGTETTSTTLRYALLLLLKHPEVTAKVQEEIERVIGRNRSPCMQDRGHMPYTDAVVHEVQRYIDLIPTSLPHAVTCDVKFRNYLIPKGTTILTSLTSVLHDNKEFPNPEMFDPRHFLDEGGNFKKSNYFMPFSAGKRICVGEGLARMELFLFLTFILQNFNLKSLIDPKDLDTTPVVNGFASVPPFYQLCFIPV
Sequence of human TRPM4 (Q8TD43 whole entry): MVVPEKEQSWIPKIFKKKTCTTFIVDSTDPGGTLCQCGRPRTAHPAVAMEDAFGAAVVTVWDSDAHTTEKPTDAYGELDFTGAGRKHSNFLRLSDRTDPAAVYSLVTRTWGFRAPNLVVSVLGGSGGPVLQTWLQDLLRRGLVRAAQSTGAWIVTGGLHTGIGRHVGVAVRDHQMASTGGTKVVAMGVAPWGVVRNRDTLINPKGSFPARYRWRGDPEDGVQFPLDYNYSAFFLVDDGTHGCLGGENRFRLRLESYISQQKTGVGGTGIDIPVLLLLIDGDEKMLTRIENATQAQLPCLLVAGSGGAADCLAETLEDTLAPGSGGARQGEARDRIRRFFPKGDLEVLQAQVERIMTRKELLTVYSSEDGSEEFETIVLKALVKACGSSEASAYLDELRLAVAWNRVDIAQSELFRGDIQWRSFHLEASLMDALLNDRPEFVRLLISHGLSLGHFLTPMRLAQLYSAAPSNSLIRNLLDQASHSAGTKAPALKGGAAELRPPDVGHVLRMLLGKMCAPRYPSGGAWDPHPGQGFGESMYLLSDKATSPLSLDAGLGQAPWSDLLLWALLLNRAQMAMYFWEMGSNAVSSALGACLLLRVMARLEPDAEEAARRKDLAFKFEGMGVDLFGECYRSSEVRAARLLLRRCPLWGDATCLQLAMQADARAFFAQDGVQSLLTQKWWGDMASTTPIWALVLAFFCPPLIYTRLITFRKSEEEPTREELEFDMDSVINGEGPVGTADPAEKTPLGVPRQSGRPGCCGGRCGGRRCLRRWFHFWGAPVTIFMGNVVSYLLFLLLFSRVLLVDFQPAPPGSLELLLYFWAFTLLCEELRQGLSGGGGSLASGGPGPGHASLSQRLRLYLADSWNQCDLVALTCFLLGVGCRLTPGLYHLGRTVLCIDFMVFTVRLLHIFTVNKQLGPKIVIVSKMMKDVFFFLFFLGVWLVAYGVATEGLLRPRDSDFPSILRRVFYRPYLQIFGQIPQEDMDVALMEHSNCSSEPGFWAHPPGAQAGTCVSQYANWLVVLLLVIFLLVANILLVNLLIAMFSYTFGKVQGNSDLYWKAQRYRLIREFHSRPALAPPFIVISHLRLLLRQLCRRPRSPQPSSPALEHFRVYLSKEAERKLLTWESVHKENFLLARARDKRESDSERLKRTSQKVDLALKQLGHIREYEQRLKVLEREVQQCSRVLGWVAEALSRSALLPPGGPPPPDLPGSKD

The half-life is the time in which the quantity being followed falls by half. As for `Fc1cccc(-c2ccccc2NCc2nc3ccccc3o2)c1` [CMP343], the “Activity on mouse TRPM4” value on mouse TRPM4 is given as “reduced activity on mouse TRPM4 compared to human TRPM4”; on mouse TRPM4 (listed as 343), “significantly less effective on mouse TRPM4”. Besides, the half-life in data set [1] (brain, ip, read-out: Brain half-life (converted)) was 2.1 h; in data set [1] (brain, iv, read-out: Brain half-life (converted)) it was 0.2 h; in data set [1] (heart, ip, read-out: Heart half-life (converted)), 15.3 h; in data set [1] (heart, iv, read-out: Heart half-life (converted)), 2.1 h; in data set [1] (plasma, ip, read-out: Plasma half-life (converted)) it was 4.3 h; in data set [1] (plasma, iv, read-out: Plasma half-life (converted)) it was 0.3 h. Besides, in data set [2], the “Current inhibition of hsTRPM4 L907A and S924A mutants versus wildtype” value is reported as “significantly reduced current inhibition in at least one hsTRPM4 mutant variant”. On human TRPM4, the “Activity on human TRPM4” value is reported as “almost completely blocked”.

In general, pIC50 refers to −log10 of the IC50, conventionally taken in molar units. A high value points to a small IC50. For the molecule `c1csc(-c2ccccc2NCc2nc3ccccc3o2)c1` [CMP355], the results for the pIC50 on CYP 2C19 and at CYP 2C9 were 5.21 and 4.83, respectively.

As to `Cc1ccsc1-c1ccccc1NCc1nc2ccccc2o1` [CMP369], the Papp at 120 min, 10 μM in data set [3] (read-out: Caco-2 perm.) was 52 ×10⁻⁶ cm/s.

In turn, `Nc1ccccc1-c1ccccc1NCc1nc2ccccc2o1` [CMP457] came in with a Papp at 120 min, 10 μM in data set [3] (heading: Caco-2 perm.) of 21 ×10⁻⁶ cm/s.
